In patent US20260023070A1, “OPTOGENETIC ALPHA-SYNUCLEIN AGGREGATION SYSTEM-BASED COMPOUND SCREENING PLATFORM IN PD-hiPSC-mDA NEURONS” (The Johns Hopkins University, priority 2022, published 2026):

Columns and labels:
[1] = tested on: α-syn PFF-treated opto-α-syn-mDA neurons; assay: Autophagy markers (western blot) in α-syn PFF-treated mDA neurons; assay type: cell-based, human; conditions: compared with control or CDC 021 treatment
Method: (§1) Because autophagy can be activated by the inhibition of PI 3-kinase (PI3K) or the PDK1 pathway, it was tested whether treatment with BAG 956 can induce the autophagic flux to decrease α-syn aggregates in opto-α-syn mDA neurons and MOs.

[2] = tested on: PI3K-PDK1/AKT/mTOR signaling pathway; assay: PI3K/PDK1 downstream target phosphorylation in α-syn PFF-treated mouse primary neurons; assay type: cell-based
Source text: (§2) Since PI3K-PDK1/AKT/mTOR signaling pathway plays a critical role in regulation of autophagy, it was investigated the effects of BAG 956 treatments on PFF models. […] Taken together, BAG 956 may act as an autophagy-enhancing drug through inhibition of the PI3K-PDK1/AKT/mTOR signaling pathway (FIG. 18I).

[3] = tested on: human PD iPSC-derived mDA neurons treated with α-syn PFF; assay: α-syn PFF model in non-OASIS human PD hiPSC-derived mDA neurons (TX-insoluble pS129-α-syn); assay type: cell-based; conditions: α-syn PFF with compound for 14 days
Method: To validate the effects of these two compounds on the OASIS-independent model, α-syn PFF were treated with mouse primary neurons and non-OASIS-human PD hiPSC-derived mDA neurons with CDC 021 and BAG 956.

[4] = tested on: blue light-illuminated opto-α-syn-mDA neurons; assay: Autophagy and aggregate clearance in blue light-illuminated opto-α-syn-mDA neurons; assay type: cell-based, human
Method: as §1

[5] = tested on: opto-α-syn SH-SY5Y cells; assay: OASIS-based high-content imaging assay of light-induced α-syn aggregation (5G4 staining, Aggregates Induction Score); assay type: cell-based, human
Method: The opto-α-syn expressing SH-SY5Y cells were seeded in 96-well black flat bottom imaging microplates (Falcon) at 30,000 cells per well in 100 μL of complete media using E1-ClipTip electronic multichannel pipette (Thermo Fisher Scientific) and incubated in 37° C. and 5% CO2 humidified incubator. After 18 h of incubation, 10 μL of 10 μM compounds (column 2 to 10) or 1% DMSO (column 1 and 12) were added (final concentration of DMSO is 0.1%). In order to induce aggregations, the plates were illuminated with blue light (26 μW/mm^2) on customized blue light illumination 96-well plates for 2 h. Afterward, cells were fixed in 4% paraformaldehyde (PFA) for 15 min and stained with the aggregated-α-syn antibody (5G4) after permeabilization with 0.1% Triton X-100/0.5% BSA/PBS solution. […] To analyze images, the automated aggregation quantification algorithm and cell counting algorithm in the form of macro are developed using ImageJ software. Briefly, the algorithm includes the inversion, subtracting background, threshold selection, analyzing particles with ranged size and circularity. The Aggregates Induction Score (AIS) is calculated using, the following equation: […]
where N^agg is the number of aggregates, ^Ntotal is the number of total cells. The AIS in each well is normalized by the AIS in positive control which is set as 1.0. […] The hit selection strategy was based on calculated AIS; hits were defined as AIS<0.5. […] Two independent experiments were performed, and total 10 images per well are analyzed to calculate AIS.
As illustrated in FIGS. 8A-8E, high-content imaging screening with the optogenetic α-syn aggregation system was performed, following the schematic representation of the process of high-content imaging (HCI) screening with optogenetics-assisted method of alpha-synuclein aggregation induction system (OASIS) (FIG. 8A). SH-SY5Y cells expressing opto-α-syn were in dark or exposed to blue light (26 μW/mm^2 at 470 nm, 1 Hz, 1 s) for 1.5 h under 96-well plate culture conditions, and then immunostained with 5G4 antibody. The equation of Aggregates Induction Score (AIS) (FIG. 8B) was used for the calculation of Z′-factor for HCI screening with OASIS (FIG. 8C). […] Arrow represents the degree of separation (Z′-factor) between light-illuminated and darkness controls. […] Detailed information of numbered compounds was described in Table 1. One-way ANOVA followed by Dunnett's post hoc test (n=10 or 20, 5 or 10 images each from two independent experiments). *P<0.05, **P<0.01, ***P<0.001, ****P<0.0001.
As illustrated in FIGS. 9A-9B, high-content imaging screening with the optogenetic α-syn aggregation system was performed. The measurement of 5G4^+ aggregates in opto-mock or opto-α-syn SH-SY5Y neuronal cells was assessed. Cells were in dark or exposed to blue light (26 μW/mm^2 at 470 nm, 1 Hz, 1 s) for 1.5 h, and then immunostained with 5G4 antibody. […] Images were converted to grayscale, and a threshold was adjusted to exclude the background based on the size of particles. Once the value of threshold was determined, all the images were applied with the fixed threshold, and then the number of aggregates was measured (FIG. 9A). Number of DAPI from the original images were counted (FIG. 9B). Representative images of opto-α-syn SH-SY5Y neuronal cells treated with 19 compounds under 24-well plate culture conditions were imaged. SH-SY5Y cells expressing opto-α-syn were in dark or exposed to blue light (34 μW/mm^2 at 470 nm, 1 Hz, 0.5 s) for 1.5 h, and then immunostained with 5G4 antibody.

[6] = tested on: PI3K-PDK1/AKT/mTOR signaling pathway; assay: PI3K/PDK1 downstream target phosphorylation in ventral midbrain of α-syn PFF-injected mice; assay type: in vivo, mouse
Source text: as §2

[7] = tested on: PI3K-PDK1/AKT/mTOR signaling pathway; assay: PI3K/PDK1 downstream target phosphorylation in α-syn PFF-treated PD hiPSC-derived dopaminergic neurons; assay type: cell-based, human
Source text: as §2

[8] = tested on: tau-PFF injected mice; assay: tau-PFF injected mice, AT8 immunofluorescence in dentate gyrus; assay type: in vivo
Method: To find in vivo efficacy in a pilot exponential set and set a drug dosage, an in vivo experiment with the tau-PFF injected mice with DMSO or BAG treatment ([…]) was performed. Intraperitoneal injection of different concentrations (0, 5, 10 mg/kg) of BAG was given for one month, once every two days. Immunofluorescence staining results of AT8 in the dentate gyrus of C57bl/6j mice (3 per group) after injection of K18-tau PFF (5 μg/kg) into the hippocampus for two months was performed (data not shown).

[9] = blue light-illuminated opto-α-syn-mDA neurons
[10] = mDA neurons exposed to blue light

Structure (SMILES): Cc1nc2cnc3ccc(C#Cc4cccnc4)cc3c2n1-c1ccc(C(C)(C)C#N)cc1 [BAG 956]
- level of autophagic marker LC-311 [1]: up-regulated
- level of autophagy flux protein p62 [1]: down-regulated
- Phosphorylation of PDK1 downstream targets PI3K, AKT, S6K, and mTOR [2]: significantly reduced
- TX-insoluble pS129-α-syn [3]: significant decrease
- LC-311 induction compared with BYL719 (alpelisib) or BAY 80-6946 (copanlisib) [4, 9]: more potent
- level of LC-311 [4, 9]: increased
- LC3+/5G4+ co-localized vesicles [4, 10]: increased number
- number of LC3+ puncta [4, 10]: increased number
- AIS compared to blue light-illuminated DMSO control ([5]; two independent experiments, 24-well culture conditions, blue light stimulation): significant decrease
- AIS, aggregates induction score ([5]; validation of 19 hits, 24-well plates, blue light, AIS normalized to positive control (blue light, DMSO) set as 1.0): 0.34
- pS473-AKT ([6]; α-syn PFF injected mice, normalized to pan-AKT): reduced
- Phosphorylation of PDK1 downstream targets PI3K, AKT, S6K, and mTOR ([6]; α-syn PFF-injected mice, 2 mg/kg or 10 mg/kg): significantly reduced
- Phosphorylation of PDK1 downstream targets PI3K, AKT, S6K, and mTOR [7]: significantly reduced
- toxicity ([8]; 10 μg/kg dosage as printed): without noticeable toxicity
- levels of the AT8+ phosphorylated-tau ([8]; intraperitoneal, once every two days for one month, 5 and 10 mg/kg): significantly decreased
